Reference: article PMC7353089, “The Hepatotoxicity of Alantolactone and Germacrone: Their Influence on Cholesterol and Lipid Metabolism in Differentiated HepaRG Cells” (Nutrients, 2020)
Like-named read-outs stand apart in the source and are kept apart here.

Assays:
dHepaRG cells [1] = test: ROS production (H2DCFDA probe); assay type: cell-based, human; details: for lowest measured concentration leading to oxidative stress: ROS production; for ROS production: various concentrations, 1, 6, 12 and 24 h, H2-DCFDA probe
Procedure: The production of reactive oxygen species (ROS) was measured using 2′,7′-dichlorofluorescin diacetate probe (H2DCFDA). The cells were preincubated with 10 µM H2DCFDA for 30 min in the dark. Afterwards, the cells were washed with PBS and sesquiterpenes were added to a Hank’s Balanced Salt Solution (HBSS) buffer. Fluorescence was measured after 1, 6, 12, and 24 h with excitation and emission wavelengths of 490 nm and 530 nm, respectively, using the Tecan Infinite M200. Hydrogen peroxide (300 µM) served as a positive control.

TFRC mRNA = test: RT-qPCR mRNA expression in dHepaRG cells; assay type: cell-based, human; details: single exposure, also at other than toxic concentrations
Procedure: Three concentrations were selected for each compound (non-toxic, non-toxic/slightly toxic and toxic). […] The expression changes of genes and proteins related to cholesterol metabolism were measured in both single and multiple exposure experiments.
(§2) All treatments were performed in triplicates and every experiment was performed three times. The cells were washed twice with ice cold phosphate-buffered saline (PBS), scrapped and stored at −80 °C until use. Total RNA from cells was isolated using TriReagent according to the manufacturer’s instructions (Biotech, Prague, Czech Republic). The purified RNA was dissolved in 40 µL of diethyl pyrocarbonate (DEPC)-treated water (0.01% DEPC in HPLC water, autoclaved) and stored at −80 °C. The measurement of absorbance at 260 and 280 nm using the NanoDrop ND-1000 UV–VIS Spectrophotometer (Thermo Fisher Scientific, Pardubice, Czech Republic) was used to determine RNA yields and purity. […] Fluorescence data were recorded at the end of each amplification step. Relative expression levels of the target genes were calculated as fold changes in triplicates for each group using the 2^−ΔΔCt method [28] by normalization to the geometric mean of the Ct values of Sdha and Ywhaz, which were used as reference genes.

dHepaRG cells [2] = test: Cholesterol level (Amplex Red Cholesterol Assay kit); assay type: cell-based, human; details: multiple exposure: four applications every 24 h, cells collected 12 h after the last; 30 μM ATL, 100 μM GER
Procedure: The cholesterol content in the dHepaRG cells was tested using the Amplex Red Cholesterol Assay kit (Invitrogen) according to the manufacturer’s instructions and as per An et al.. The cells were collected 12 h after the last exposure of the tested compounds in a 4-day exposure with a medium change every 24 h. The cells were rinsed three times in PBS to eliminate residual growth medium. Whole cell extracts were prepared by 0.5 mL of RIPA lysis buffer (0.5% sodium deoxycholate, 0.1% SDS, 1% NP-40, 150 mM NaCl, 1 mM DTT, 50 mM Tris–HCl (pH = 7.4) and phenylmethanesulfonyl fluoride. Fluorescence was measured using a microplate reader (Tecan Infinite M200) at 530 nm excitation and 590 nm emission wavelengths. The total cholesterol (TC) content was determined by measuring the cholesterol concentration following digestion with cholesterol esterase (CE). To measure the free cholesterol (FC), CE was omitted from the assay. Three independent experiments were performed. The values obtained from a cholesterol standard curve were normalized to protein content, measured by a BCA assay.

SCD mRNA = test: RT-qPCR mRNA expression in dHepaRG cells; assay type: cell-based, human; details: single exposure, 6, 12 and 24 h
Procedure: (§3) All treatments were performed in triplicates and every experiment was performed three times. The cells were washed twice with ice cold phosphate-buffered saline (PBS), scrapped and stored at −80 °C until use. Total RNA from cells was isolated using TriReagent according to the manufacturer’s instructions (Biotech, Prague, Czech Republic). The purified RNA was dissolved in 40 µL of diethyl pyrocarbonate (DEPC)-treated water (0.01% DEPC in HPLC water, autoclaved) and stored at −80 °C. The measurement of absorbance at 260 and 280 nm using the NanoDrop ND-1000 UV–VIS Spectrophotometer (Thermo Fisher Scientific, Pardubice, Czech Republic) was used to determine RNA yields and purity. Subsequently, the RNA (4 µg) was treated with 2 U of DNase I (New England Biolabs, Ipswich, MA, USA) in a final volume of 30 µL for 25 min at 37 °C, 1.5 µL of 0.1 M ethylenediaminetetraacetic acid was added and the DNAse was inactivated by heat (5 min at 75 °C). […] Fluorescence data were recorded at the end of each amplification step. Relative expression levels of the target genes were calculated as fold changes in triplicates for each group using the 2^−ΔΔCt method [28] by normalization to the geometric mean of the Ct values of Sdha and Ywhaz, which were used as reference genes.

HepG2 = details: HepG2, 24 h, read-out: Previously Reported IC50 Values (24 h), cited from earlier work
ACACB mRNA = test: RT-qPCR mRNA expression in dHepaRG cells; assay type: cell-based, human; details: single exposure, 6, 12 and 24 h
Procedure: as §3

MDA-MB-231 = details: MDA-MB-231, 24 h; read-out: Previously Reported IC50 Values (24 h); cited from earlier work
HMGCR mRNA = test: RT-qPCR mRNA expression in dHepaRG cells; assay type: cell-based, human; details: single exposure, the highest concentration
Procedure: (§1) The mRNA and protein expression changes were measured after a single administration of ALA and GER. Three concentrations were selected for each compound (non-toxic, non-toxic/slightly toxic and toxic). The cholesterol level of the dHepaRG cells was measured after a multiple exposure of the highest non-toxic concentrations of tested compounds. ATL (30 µM) and GER (100 µM) were administered four times every 24 h. The expression changes of genes and proteins related to cholesterol metabolism were measured in both single and multiple exposure experiments.
All treatments were performed in triplicates and every experiment was performed three times. The cells were washed twice with ice cold phosphate-buffered saline (PBS), scrapped and stored at −80 °C until use. Total RNA from cells was isolated using TriReagent according to the manufacturer’s instructions (Biotech, Prague, Czech Republic). The purified RNA was dissolved in 40 µL of diethyl pyrocarbonate (DEPC)-treated water (0.01% DEPC in HPLC water, autoclaved) and stored at −80 °C. The measurement of absorbance at 260 and 280 nm using the NanoDrop ND-1000 UV–VIS Spectrophotometer (Thermo Fisher Scientific, Pardubice, Czech Republic) was used to determine RNA yields and purity. Subsequently, the RNA (4 µg) was treated with 2 U of DNase I (New England Biolabs, Ipswich, MA, USA) in a final volume of 30 µL for 25 min at 37 °C, 1.5 µL of 0.1 M ethylenediaminetetraacetic acid was added and the DNAse was inactivated by heat (5 min at 75 °C). The solution was diluted to a concentration of 0.1 µg/µL. The DNAse treated RNA was stored at −80 °C until further analyses. […] Fluorescence data were recorded at the end of each amplification step. Relative expression levels of the target genes were calculated as fold changes in triplicates for each group using the 2^−ΔΔCt method by normalization to the geometric mean of the Ct values of Sdha and Ywhaz, which were used as reference genes.

CYP3A4 mRNA = test: RT-qPCR mRNA expression in dHepaRG cells; details: single exposure, also at other than toxic concentrations
Procedure: as §1
All treatments were performed in triplicates and every experiment was performed three times. The cells were washed twice with ice cold phosphate-buffered saline (PBS), scrapped and stored at −80 °C until use. […] The measurement of absorbance at 260 and 280 nm using the NanoDrop ND-1000 UV–VIS Spectrophotometer (Thermo Fisher Scientific, Pardubice, Czech Republic) was used to determine RNA yields and purity. […] Fluorescence data were recorded at the end of each amplification step. Relative expression levels of the target genes were calculated as fold changes in triplicates for each group using the 2^−ΔΔCt method by normalization to the geometric mean of the Ct values of Sdha and Ywhaz, which were used as reference genes.

[3] = test system: proliferative liver (HepG2, HuH-7, LO2), breast (MCF7, MDA-MB-231), and glioblastoma cancer cell lines; details: after 12 to 24 h; read-out: IC50 values in proliferative cancer cell lines (approximate); cited from earlier work
SREBP-1c mRNA = test: RT-qPCR mRNA expression in dHepaRG cells; assay type: cell-based, human
Procedure: as §3

FASN mRNA = test: RT-qPCR mRNA expression in dHepaRG cells; assay type: cell-based, human; details: single exposure, 6, 12 and 24 h
Procedure: Three concentrations were selected for each compound (non-toxic, non-toxic/slightly toxic and toxic). The cholesterol level of the dHepaRG cells was measured after a multiple exposure of the highest non-toxic concentrations of tested compounds. […] The expression changes of genes and proteins related to cholesterol metabolism were measured in both single and multiple exposure experiments.
as §2

Row | Structure (SMILES) | lowest measured concentration leading to oxidative stress (dHepaRG cells [1]) | ROS production (dHepaRG cells [1]) | TFRC mRNA expression (TFRC mRNA) | level of free cholesterol and esterified cholesterol (dHepaRG cells [2]) | SCD mRNA level (SCD mRNA) | IC50 (HepG2; ref 9) | IC50 (HepG2; ref 35) | IC50 (HepG2; ref 36) | ACACB mRNA level (ACACB mRNA) | IC50 (MDA-MB-231) | HMGCR mRNA level (HMGCR mRNA; 6-h exposure) | HMGCR mRNA level (HMGCR mRNA; 12- and 24-h exposure) | CYP3A4 mRNA expression (CYP3A4 mRNA) | IC50 [3] | SREBP-1c mRNA (SREBP-1c mRNA; single exposure, 6, 12 and 24 h) | FASN mRNA level (FASN mRNA) | IC50 (HepG2; ref 7) | IC50 (HepG2; ref 12) | IC50 (HepG2; ref 13) | SREBP-1c mRNA (SREBP-1c mRNA; single exposure, toxic concentration after 24 h)
1 | C=C1C(=O)O[C@@H]2C[C@@]3(C)CCC[C@H](C)C3=C[C@H]12 [ATL, alantolactone] | 20 µM | significant time- and concentration-dependent enhancement of ROS production | inhibited | no effect was observed | significantly decreased | 33 µM | 7 µM | 30 µM | significantly decreased | > 15 µM | induction | decreased level | induced | 10 to 30 µM | dysregulated | significantly decreased |  |  |  | 
2 | CC(C)=C1C/C=C(\C)CC/C=C(\C)CC1=O [GER, germacrone] | 100 µM | significant time- and concentration-dependent enhancement of ROS production | inhibited | no effect was observed | significantly decreased |  |  |  | significantly decreased | 244 µM |  |  | induced | 150 to 250 µM |  | significantly decreased | 170 µM | 160 µM | > 240 µM | inhibited
